# Assay results taken from patent US20260217707A1, “GLP-1R AGONISTS AND USES THEREOF” (Fochon Biosciences, Ltd., priority 2023, published 2026).
# Target: GLP1R receptor (Homo sapiens, UniProt P43220)
# Experiment: cAMP assay: intracellular cAMP detected by TR-FRET
# Assay type: cell-based
# Details: cells incubated with compound at 37° C. for 30 min, maximum concentration 12 μM
# Method: Intracellular cAMP concentration was detected by TR-FRET method to evaluate the activity of drug-induced GLP1R receptor. The cells were prepared in an experimental buffer solution (HBSS, 20 mM HEPES (pH 7.5), 0.1% BSA, 500 μM IBMX) and inoculated into 384 cell culture plates with a inoculated density of 2000 cells and a inoculated volume of 15 μL per well. The compound was diluted by 3 times gradient with DMSO, 10 concentration gradients, and the 10 concentration gradients were diluted by 100 times in Buffer. The maximum concentration point of compound to be tested was 12 μM. The inoculated 384 cell plates were added with 5 μL prepared working solution and incubated at 37° C. for 30 min. Eu-cAMP tracer was diluted 50 times and Ulight-anti-cAMP 150 times by detection buffer (cAMP Kit, Perkin Elmer, cat #TRF0263). At first, 10 μL Eu-cAMP tracer was added to each experimental well, and then 10 μL Uligh-anti-cAMP was added to each experimental well. Centrifuged the assay plate at 200 g, RT, for 30 s, incubated it at 25° C. for 1 h. Collected the data by Envision 2105 microplate reader with a HTRF module. Excitation: 340 nm; emission: 665 nm and 615 nm.
# The activation rate of each concentration of the tested compound to the positive drug was calculated by the formula % Activity=100 (SignalcmpdSignalAve_PC)/(SignalAve_VCSignalAve_PC)×100, EC50 values and nonlinear regression curve fits were obtained using GraphPad Prism software.
# Chain of GLP1R receptor (P43220 24-463): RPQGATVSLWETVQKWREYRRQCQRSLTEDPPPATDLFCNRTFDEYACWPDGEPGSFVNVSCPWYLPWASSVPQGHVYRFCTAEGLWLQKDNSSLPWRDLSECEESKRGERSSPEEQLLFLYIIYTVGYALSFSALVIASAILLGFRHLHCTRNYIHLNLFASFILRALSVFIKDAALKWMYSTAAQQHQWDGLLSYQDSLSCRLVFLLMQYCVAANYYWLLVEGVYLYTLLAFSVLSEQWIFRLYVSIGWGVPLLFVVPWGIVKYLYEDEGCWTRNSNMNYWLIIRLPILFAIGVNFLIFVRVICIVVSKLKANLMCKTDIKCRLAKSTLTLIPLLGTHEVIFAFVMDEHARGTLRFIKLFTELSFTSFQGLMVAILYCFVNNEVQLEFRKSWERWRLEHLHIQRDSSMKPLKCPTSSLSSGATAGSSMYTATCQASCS
row,SMILES,EC50 [nM]
1,"Cc1cc(-n2nc3c(c2-n2ccn(-c4ccc5c(cnn5C)c4F)c2=O)[C@H](C)N(C(=O)c2oc4cc(C5CCOC(C)(C)C5)ncc4c2C2(c4noc(=O)[nH]4)C[C@@H]2C)CC3)cc(C)c1F (stereo partly drawn) [Example 31, 3-((2S)-1-(6-(2,2-dimethyl-tetrahydro-2H-pyran-4-yl)-2-((S)-3-(3-(4-fluoro-1-methyl-1H-indazol-5-yl)-2-oxo-2,3-dihydro-1H-imidazol-1-yl)-2-(4-fluoro-3,5-dimethylphenyl)-4-methyl-4,5,6,7-tetrahydro-2H-pyrazolo[4,3-c]pyridine-5-carbonyl)furo[3,2-c]pyridin-3-yl)-2-methyl-cyclopropyl)-1,2,4-oxadiazol-5(4H)-one]",0.182
2,"Cc1cc(-n2nc3c(c2N2C(=O)N(c4ccc5c(cnn5C)c4F)C4CC42)[C@H](C)N(C(=O)c2cc4cc([C@H]5CCOC(C)(C)C5)ccc4n2[C@@]2(c4noc(=O)[nH]4)C[C@@H]2C)CC3)cc(C)c1F (stereo partly drawn) [Example 6, 3-((1S,2S)-1-(5-((S)-2,2-dimethyltetrahydro-2H-pyran-4-yl)-2-((4S)-3-(4-(4-fluoro-1-methyl-1H-indazol-5-yl)-3-oxo-2,4-diazabicyclo[3.1.0]hexan-2-yl)-2-(4-fluoro-3,5-dimethylphenyl)-4-methyl-4,5,6,7-tetrahydro-2H-pyrazolo[4,3-c]pyridine-5-carbonyl)-1H-indol-1-yl)-2-methylcyclopropyl)-1,2,4-oxadiazol-5(4H)-one]",0.087
3,"Cc1cc(-n2nc3c(c2-n2ccn(-c4ccc5c(cnn5C)c4F)c2=O)[C@H](C)N(C(=O)c2sc4nc(C5CCOC(C)(C)C5)ccc4c2C2(c4noc(=O)[nH]4)C[C@@H]2C)CC3)cc(C)c1F (stereo partly drawn) [Example 29, 3-((2S)-1-(6-(2,2-dimethyl-tetrahydro-2H-pyran-4-yl)-2-((S)-3-(3-(4-fluoro-1-methyl-1H-indazol-5-yl)-2-oxo-2,3-dihydro-1H-imidazol-1-yl)-2-(4-fluoro-3,5-dimethyl-phenyl)-4-methyl-4,5,6,7-tetrahydro-2H-pyrazolo[4,3-c]pyridine-5-carbonyl)thieno [2,3-b]pyridin-3-yl)-2-methylcyclopropyl)-1,2,4-oxadiazol-5(4H)-one]",0.093

# More lines, now with the values ahead:
row,EC50 [nM],SMILES
1,0.044,"Cc1cc(-n2nc3c(c2-n2ccn(-c4ccc5c(cnn5C)c4F)c2=O)[C@H](C)N(C(=O)c2sc4cc(C5CCOC(C)(C)C5)cnc4c2C2(c4noc(=O)[nH]4)C[C@@H]2C)CC3)cc(C)c1F (stereo partly drawn) [Example 30, 3-((2S)-1-(6-(2,2-dimethyl-tetrahydro-2H-pyran-4-yl)-2-((S)-3-(3-(4-fluoro-1-methyl-1H-indazol-5-yl)-2-oxo-2,3-dihydro-1H-imidazol-1-yl)-2-(4-fluoro-3,5-dimethylphenyl)-4-methyl-4,5,6,7-tetrahydro-2H-pyrazolo[4,3-c]pyridine-5-carbonyl)thieno[3,2-b]pyridin-3-yl)-2-methyl-cyclopropyl)-1,2,4-oxadiazol-5(4H)-one]"
2,0.406,Cc1cc(-n2nc3c(c2-n2ccn(-c4ccc5c(cnn5C)c4F)c2=O)[C@H](C)N(C(=O)c2sc4cc(C5CCOC(C)(C)C5)ccc4c2C2(c4noc(=O)[nH]4)C[C@@H]2C)CC3)cc(C)c1F (some centres unmarked) [Example 3]
